Blank lines part the entries; values can stand above or below the compound they belong to. Bridge positions count the residues as written; N and C are the ends. Peptide text beside a SMILES is read from it.
Experiments:
[1] = target: T1, Piezo-type mechanosensitive ion channel component 1 (Mus musculus, UniProt E2JF22); test: Binding affinity to mouse Piezo1 assessed as dissociation constant by SPR assay
[2] = target: T1, Piezo-type mechanosensitive ion channel component 1; test: Inhibition of mouse Piezo1
[3] = target: T2, Piezo-type mechanosensitive ion channel component 1 (Homo sapiens, UniProt Q92508); test: Agonist activity at human Piezo1 transfected in human HEK293T cells by FLIPR assay; type: cell-based
T2 sequence (Q92508 whole entry): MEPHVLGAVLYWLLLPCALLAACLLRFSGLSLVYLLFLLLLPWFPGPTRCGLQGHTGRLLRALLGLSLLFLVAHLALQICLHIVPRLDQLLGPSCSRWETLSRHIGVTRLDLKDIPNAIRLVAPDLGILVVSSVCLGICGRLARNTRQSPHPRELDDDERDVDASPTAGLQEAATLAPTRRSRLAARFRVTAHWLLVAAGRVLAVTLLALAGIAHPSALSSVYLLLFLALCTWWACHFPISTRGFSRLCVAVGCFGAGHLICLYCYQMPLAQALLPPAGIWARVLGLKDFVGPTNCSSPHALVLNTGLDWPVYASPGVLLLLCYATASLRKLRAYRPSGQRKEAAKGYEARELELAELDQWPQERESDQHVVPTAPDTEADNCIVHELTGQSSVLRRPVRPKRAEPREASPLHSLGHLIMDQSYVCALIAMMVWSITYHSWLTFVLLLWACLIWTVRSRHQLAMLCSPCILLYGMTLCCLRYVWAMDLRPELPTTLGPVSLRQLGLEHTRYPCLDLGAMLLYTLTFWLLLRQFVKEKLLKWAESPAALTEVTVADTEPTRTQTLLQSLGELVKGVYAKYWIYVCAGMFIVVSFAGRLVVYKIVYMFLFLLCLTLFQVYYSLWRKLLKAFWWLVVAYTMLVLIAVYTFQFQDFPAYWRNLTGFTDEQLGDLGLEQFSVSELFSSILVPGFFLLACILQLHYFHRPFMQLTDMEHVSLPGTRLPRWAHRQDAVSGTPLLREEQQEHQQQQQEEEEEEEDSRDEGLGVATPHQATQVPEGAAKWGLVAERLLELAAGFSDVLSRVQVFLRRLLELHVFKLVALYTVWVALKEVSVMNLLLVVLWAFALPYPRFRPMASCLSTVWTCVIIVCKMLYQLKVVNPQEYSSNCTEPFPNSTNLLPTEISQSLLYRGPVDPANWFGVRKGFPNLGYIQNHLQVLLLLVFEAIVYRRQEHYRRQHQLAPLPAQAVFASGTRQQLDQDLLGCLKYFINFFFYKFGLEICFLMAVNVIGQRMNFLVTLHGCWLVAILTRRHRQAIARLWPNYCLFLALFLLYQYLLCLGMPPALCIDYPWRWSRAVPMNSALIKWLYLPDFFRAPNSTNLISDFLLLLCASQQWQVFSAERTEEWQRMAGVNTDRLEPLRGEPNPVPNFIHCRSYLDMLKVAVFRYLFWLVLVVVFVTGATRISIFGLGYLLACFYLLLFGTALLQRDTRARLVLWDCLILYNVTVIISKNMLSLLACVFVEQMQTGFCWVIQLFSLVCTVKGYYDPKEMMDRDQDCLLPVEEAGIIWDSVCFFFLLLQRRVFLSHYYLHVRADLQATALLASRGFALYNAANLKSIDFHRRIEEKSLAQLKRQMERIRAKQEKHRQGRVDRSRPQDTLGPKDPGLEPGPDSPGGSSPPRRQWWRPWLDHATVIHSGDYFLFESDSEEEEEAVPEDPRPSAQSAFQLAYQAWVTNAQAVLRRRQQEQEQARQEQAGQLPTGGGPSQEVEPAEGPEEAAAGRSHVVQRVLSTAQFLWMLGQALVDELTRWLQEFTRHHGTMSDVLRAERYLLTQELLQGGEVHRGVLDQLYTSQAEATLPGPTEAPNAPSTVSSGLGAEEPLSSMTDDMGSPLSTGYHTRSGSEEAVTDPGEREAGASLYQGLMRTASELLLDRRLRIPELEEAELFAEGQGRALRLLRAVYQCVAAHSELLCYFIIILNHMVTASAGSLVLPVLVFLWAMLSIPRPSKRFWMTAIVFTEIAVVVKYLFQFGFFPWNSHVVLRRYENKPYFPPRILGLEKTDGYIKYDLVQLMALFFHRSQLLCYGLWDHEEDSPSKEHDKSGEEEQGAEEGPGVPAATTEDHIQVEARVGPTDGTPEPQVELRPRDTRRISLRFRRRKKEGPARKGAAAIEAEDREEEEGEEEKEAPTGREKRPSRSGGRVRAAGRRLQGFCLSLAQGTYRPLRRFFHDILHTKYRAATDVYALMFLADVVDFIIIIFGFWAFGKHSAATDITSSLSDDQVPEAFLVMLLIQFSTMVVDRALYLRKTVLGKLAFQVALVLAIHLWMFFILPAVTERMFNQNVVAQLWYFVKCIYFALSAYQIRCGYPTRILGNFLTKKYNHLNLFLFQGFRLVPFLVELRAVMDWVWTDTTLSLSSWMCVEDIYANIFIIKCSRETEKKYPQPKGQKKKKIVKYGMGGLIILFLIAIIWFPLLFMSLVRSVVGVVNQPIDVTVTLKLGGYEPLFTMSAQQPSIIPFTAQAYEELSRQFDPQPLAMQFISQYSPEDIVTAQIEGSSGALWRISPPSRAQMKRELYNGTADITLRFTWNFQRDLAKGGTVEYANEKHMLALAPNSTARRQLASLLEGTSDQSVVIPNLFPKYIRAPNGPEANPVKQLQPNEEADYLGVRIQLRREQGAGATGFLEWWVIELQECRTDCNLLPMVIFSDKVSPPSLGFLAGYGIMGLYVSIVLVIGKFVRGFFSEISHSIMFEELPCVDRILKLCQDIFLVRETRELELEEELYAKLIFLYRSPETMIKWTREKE

[4] = target: T1, Piezo-type mechanosensitive ion channel component 1; test: Agonist activity at mouse Piezo1 transfected in human HEK293T cells by FLIPR assay; type: cell-based
[5] = target: T2, Piezo-type mechanosensitive ion channel component 1; test: Binding affinity to Piezo1 (unknown origin) transfected in human HEK293 cells assessed as equilibrium constant at 40 mmHg/+50 mV; type: cell-based
[6] = target: T2, Piezo-type mechanosensitive ion channel component 1; test: Inhibition of Piezo1 (unknown origin) transfected in human HEK293 cells assessed as rightward shift in pressure-gating curve at 50 mV at 1 to 4 uM; type: cell-based; settings: dose 1-4 µM

T1 sequence (E2JF22 whole entry): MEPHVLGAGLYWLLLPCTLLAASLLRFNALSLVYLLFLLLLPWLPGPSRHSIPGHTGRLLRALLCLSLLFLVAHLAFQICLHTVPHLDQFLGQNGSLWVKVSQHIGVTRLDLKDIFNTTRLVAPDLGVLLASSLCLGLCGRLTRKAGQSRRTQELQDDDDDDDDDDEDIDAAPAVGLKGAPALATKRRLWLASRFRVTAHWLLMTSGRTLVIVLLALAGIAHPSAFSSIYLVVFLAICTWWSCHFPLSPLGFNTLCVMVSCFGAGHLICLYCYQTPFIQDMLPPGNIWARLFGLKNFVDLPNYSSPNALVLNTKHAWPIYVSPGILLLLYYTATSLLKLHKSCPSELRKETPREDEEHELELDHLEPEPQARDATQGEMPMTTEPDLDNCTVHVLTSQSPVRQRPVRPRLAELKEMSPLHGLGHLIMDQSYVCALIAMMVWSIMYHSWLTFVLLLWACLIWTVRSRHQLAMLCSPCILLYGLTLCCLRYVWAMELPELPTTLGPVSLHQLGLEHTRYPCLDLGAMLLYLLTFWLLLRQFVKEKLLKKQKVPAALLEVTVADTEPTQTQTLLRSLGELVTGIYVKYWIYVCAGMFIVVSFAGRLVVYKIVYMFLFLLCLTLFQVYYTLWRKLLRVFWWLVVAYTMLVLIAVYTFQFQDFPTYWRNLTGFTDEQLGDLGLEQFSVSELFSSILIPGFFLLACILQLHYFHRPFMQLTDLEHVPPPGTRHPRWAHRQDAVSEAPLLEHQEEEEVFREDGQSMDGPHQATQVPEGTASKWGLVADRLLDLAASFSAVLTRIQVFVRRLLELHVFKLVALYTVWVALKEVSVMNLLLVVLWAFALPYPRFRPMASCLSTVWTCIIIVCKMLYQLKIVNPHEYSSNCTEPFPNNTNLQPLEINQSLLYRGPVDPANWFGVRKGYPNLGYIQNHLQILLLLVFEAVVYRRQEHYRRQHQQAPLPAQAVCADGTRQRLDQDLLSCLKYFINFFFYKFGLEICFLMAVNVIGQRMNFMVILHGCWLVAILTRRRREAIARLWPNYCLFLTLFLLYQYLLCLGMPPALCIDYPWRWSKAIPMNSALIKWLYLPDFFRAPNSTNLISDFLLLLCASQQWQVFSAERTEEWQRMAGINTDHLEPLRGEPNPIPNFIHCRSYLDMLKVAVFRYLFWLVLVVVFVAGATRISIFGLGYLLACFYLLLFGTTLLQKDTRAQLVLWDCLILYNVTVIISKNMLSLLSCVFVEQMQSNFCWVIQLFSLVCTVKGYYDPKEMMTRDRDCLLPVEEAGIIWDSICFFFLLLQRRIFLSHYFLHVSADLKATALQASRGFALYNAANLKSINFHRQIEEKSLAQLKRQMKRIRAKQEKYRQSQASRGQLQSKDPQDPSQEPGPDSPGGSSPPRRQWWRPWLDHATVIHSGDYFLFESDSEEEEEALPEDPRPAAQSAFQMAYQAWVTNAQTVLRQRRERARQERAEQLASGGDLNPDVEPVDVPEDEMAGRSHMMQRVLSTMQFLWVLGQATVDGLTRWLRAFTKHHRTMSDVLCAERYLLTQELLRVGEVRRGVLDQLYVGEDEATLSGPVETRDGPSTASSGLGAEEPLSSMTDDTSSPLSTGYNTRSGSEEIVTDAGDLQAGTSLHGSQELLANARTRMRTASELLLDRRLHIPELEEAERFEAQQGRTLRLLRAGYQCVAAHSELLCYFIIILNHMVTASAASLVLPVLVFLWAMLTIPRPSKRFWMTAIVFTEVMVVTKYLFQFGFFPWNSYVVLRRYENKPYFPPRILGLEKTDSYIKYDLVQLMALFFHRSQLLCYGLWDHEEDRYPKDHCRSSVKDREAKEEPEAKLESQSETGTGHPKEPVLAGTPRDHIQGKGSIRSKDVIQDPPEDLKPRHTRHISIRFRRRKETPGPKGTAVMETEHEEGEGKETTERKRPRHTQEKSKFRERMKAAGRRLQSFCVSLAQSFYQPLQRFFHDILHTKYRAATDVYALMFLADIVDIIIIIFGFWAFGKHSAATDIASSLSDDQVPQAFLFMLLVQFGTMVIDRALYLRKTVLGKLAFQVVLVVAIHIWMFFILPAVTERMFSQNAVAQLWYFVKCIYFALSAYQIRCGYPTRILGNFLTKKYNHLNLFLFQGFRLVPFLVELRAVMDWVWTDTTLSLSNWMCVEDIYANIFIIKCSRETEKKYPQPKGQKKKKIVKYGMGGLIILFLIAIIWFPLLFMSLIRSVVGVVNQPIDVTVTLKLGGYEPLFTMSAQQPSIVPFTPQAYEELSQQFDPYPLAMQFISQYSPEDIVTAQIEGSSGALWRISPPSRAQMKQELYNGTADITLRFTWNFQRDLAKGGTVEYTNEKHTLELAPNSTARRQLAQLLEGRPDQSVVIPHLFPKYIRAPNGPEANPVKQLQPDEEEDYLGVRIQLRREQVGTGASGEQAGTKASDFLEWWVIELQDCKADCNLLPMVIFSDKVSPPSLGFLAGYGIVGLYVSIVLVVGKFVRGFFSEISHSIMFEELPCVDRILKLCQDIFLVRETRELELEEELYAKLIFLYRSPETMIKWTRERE

- Kd [1]: 2240 µM
Compound: Cc1oc(-c2cccs2)cc1C(=O)O

- EC50 [2]: 200 µM
Compound: Cc1oc(-c2ccccc2)cc1C(=O)O

- EC50 [3]: 26.6 µM
- EC50 [4]: 17.1 µM
Compound: Clc1cccc(Cl)c1CSc1nnc(-c2cnccn2)s1

- Ke [5]: 155 nM
- Activity [6]: 30 mmHg
Compound: CC(C)C[C@@H]1NC(=O)[C@@H](NC(=O)CN)CSSC[C@@H]2NC(=O)[C@@H]3CSSC[C@@H](C(=O)N[C@@H](CC(N)=O)C(=O)N[C@@H](Cc4ccccc4)C(=O)N[C@@H](CO)C(=O)N[C@@H](Cc4ccccc4)C(N)=O)NC(=O)[C@H](CC(C)C)NC(=O)[C@H](CCCCN)NC(=O)[C@H](Cc4ccccc4)NC(=O)[C@H](CC(C)C)NC(=O)[C@H](CCCCN)NC(=O)[C@H](CO)NC(=O)[C@H](CSSC[C@H](NC(=O)[C@H](CCCCN)NC(=O)[C@H](Cc4c[nH]c5ccccc45)NC(=O)[C@H](Cc4c[nH]c5ccccc45)NC(=O)[C@H](Cc4ccccc4)NC(=O)[C@H](CCC(=O)O)NC1=O)C(=O)N[C@@H](CC(N)=O)C(=O)N1CCC[C@H]1C(=O)N[C@@H](CC(N)=O)C(=O)N[C@@H](CC(=O)O)C(=O)N[C@@H](CC(=O)O)C(=O)N[C@@H](CCCCN)C(=O)N3)NC(=O)[C@H](CCCCN)NC(=O)[C@H](CC(C)C)NC(=O)[C@H](CCCCN)NC(=O)[C@@H]1CCCN1C(=O)[C@H](CCCNC(=N)N)NC2=O (H-GCLEFWWKCNPNDDKCCRPKLKCSKLFKLCNFSF-NH2; disulfide 2-17, 9-23, 16-30)

From ChEMBL document CHEMBL5143676, “Piezo-Type Mechanosensitive Ion Channel Component 1 (Piezo1): A Promising Therapeutic Target and Its Modulators” (J Med Chem, 2022)
